From US20240043527A1 (BioNTech SE, priority 2020, published 2024)

Experiments:
CHO-K1 cells = assay: Expression and assembly of RiboMab after lipofection of CHO-K1 cells (ELISA); assay type: cell-based, Chinese hamster; conditions: 48 hours post lipofection
[1] = system: CLDN-18.2+ NUG-C4 transfectants; assay: In vitro ADCC assay (luciferase-based); assay type: cell-based, human; conditions: for ADCC, cellular cytotoxicity: control cells MDA-MB-231, human PBMCs, E:T 30:1
Protocol: (§1) RiboMab01-containing cell culture supernatant from CHO-K1 cells lipofected with RB_RMAB01 was subjected to (Panel A) ADCC and (Panel B) CDC assays. […] Human PBMCs of three different healthy donors were utilized as effector cells (E:T ratio 30:1). Target or control and effector cells were incubated for 48 hours with the indicated RiboMab01 and IMAB362 reference protein concentrations. Specific cell lysis as determined in a luciferase-based assay is shown. […] Target and control cells were incubated with human serum and RiboMab01 concentrations as indicated for 2 hours. CDC determined in a luciferase-based assay is shown. Error bars are standard errors of the mean (n=3).
(§2) Mode of action analysis: Antibody-dependent cellular cytotoxicity (ADCC) and complement-dependent cytotoxicity (CDC) in vitro. […] To simulate in vivo conditions, human PBMCs from three different healthy donors were used as effector cells in ADCC assays in an effector to target (E:T) ratio of 30:1 and human serum (e.g., commercially available human serum) was used as a source of complement in CDC assays.

[2] = system: CLDN-18.2+ CHO-K1 transfectants; assay: In vitro CDC assay (luciferase-based); assay type: cell-based; conditions: human serum, 2 hours, control CLDN-18.2-negative CHO-K1
Protocol: as §1, §2

[3] = system: CLDN-18.2+ NUG-C4 transfectants; assay: Ex vivo ADCC assay with plasma of dosed mice; assay type: cell-based, human; conditions: 1% plasma sampled 24 hours post 5th IV dosing of 1-30 μg RNA composition, 48 hours, E:T 30:1
Protocol: (§3) Plasma of mice dosed with five repetitive injections of either 1 μg (˜0.04 mg/kg), 3 μg (˜0.10 mg/kg), 10 μg (˜0.40 mg/kg) and 30 μg (˜1.20 mg/kg) RB_RMAB01 or 80 μg (˜3.20 mg/kg) of IMAB362 was sampled 24 hours post 5th injection and directed to luciferase-based ex vivo ADCC assays. Plasma of untreated mice spiked with IMAB362 served as assay reference. […] (Panel A) RiboMab01 mediated ADCC of NUG-C4 cells after 48 hours incubation with 1% of plasma is shown. […] Error bars are standard errors of the mean (n=3).
(§4) Plasma of untreated mice spiked with IMAB362 served as assay reference.

MDA-MB-231 cells [4] = assay: Ex vivo ADCC assay with plasma of dosed mice, target-negative control cells; assay type: cell-based, human; conditions: mouse plasma
Protocol: as §3, §4

[5] = system: CLDN-18.2+ NUG-C4 transfectants; assay: Ex vivo ADCC assay with serum of dosed non-human primates; assay type: cell-based; conditions: for ADCC target cell lysis: serum 24 hours and 168 hours post IV dosing of 0.1, 0.4, 1.6 mg/kg
Protocol: (§5) Non-Human Primates (NHP) received three repetitive doses of 0.1, 0.4 or 1.6 mg/kg RB_RMAB01 once weekly. RiboMab01-containing serum of all monkeys sampled 24 hours (black bars) and 168 hours (white bars) post 1st injection was directed to luciferase-based ex vivo ADCC assays. […] Human PBMCs from two different healthy donors (24 h, donor 1, 168 h, donor 2) served as effector cells. (Panel A) RiboMab01-mediated ADCC of NUG-C4 cells after 48 hours incubation is shown. (Panel B) Unspecific lysis on target-negative MDA-MB-231 cells is shown. Error bars are standard error of the mean (n=3). (Panel C) Serum of NHP No. 14 (1.6 mg/kg RB_RMAB01, RiboMab01 serum concentration 232 μg/mL) collected 48 hours after the 3rd dosing was used for a luciferase-based ex vivo ADCC assays. […] Human PBMCs of a healthy donor served as effector cells. […] Incubation time was 48 hours. Error bars are standard errors of the mean (n=3).
(§6) ADCC assays were performed as described in Example 2. […] Purified IMAB362 served as assay reference protein.

MDA-MB-231 cells [6] = assay: Ex vivo ADCC assay with serum of dosed non-human primates, target-negative control cells; assay type: cell-based
Protocol: as §5, §6

[7] = Single dose PK study in mice (ELISA); assay type: in vivo, Balb/cJRj mice; conditions: single IV dose
Protocol: Balb/cJRj mice received a single IV injection of 1 μg (0.040 mg/kg), 3 μg (˜0.10 mg/kg), 10 μg (˜0.40 mg/kg) or 30 μg (˜1.20 mg/kg) RB_RMAB01 drug product and […] IMAB362 reference protein. Plasma was sampled 6, 24, 96, 168, 264, 336 and 504 hours post administration. RiboMab01 concentrations in plasma measured via ELISA are shown. Error bars are standard errors of the mean (n=3).

[8] = Single dose PK study in rats (ELISA); assay type: in vivo, RjHan:Wister rats; conditions: single IV dose, post administration
Protocol: RjHan:Wister rats received a single IV injection of 0.04, 0.10, 0.40 or 1.20 mg/kg of RB_RMAB01 and 3.60 mg/kg of IMAB362 reference protein. Plasma was sampled 2, 6, 8, 10, 22, 24, 27, 30, 48, 72, 96, 168, 216, 264 and 336 hours post administration. RiboMab01 concentrations in plasma measured via ELISA are shown. Error bars are standard errors of the mean (n=3).

[9] = Repetitive dose PK study in mice (ELISA); assay type: in vivo, Balb/cJRj mice; conditions: five weekly IV doses
Protocol: Balb/cJRj mice received IV injections of 1 μg (˜0.04 mg/kg), 3 μg (˜0.10 mg/kg), 10 μg (˜0.40 mg/kg) or 30 μg (˜1.20 mg/kg) RB_RMAB01 and 80 μg (˜3.20 mg/kg) IMAB362 reference protein at test days 1, 8, 15, 21 and 29. Plasma was sampled 24 hours pre- and 24 hours post-dosing. RiboMab01 concentrations in plasma measured via ELISA are shown. Dotted lines indicate injections. Error bars are standard errors of the mean (n=3).

[10] = cynomolgus monkey, in vivo
Protocol: Furthermore, immunotoxicity in vivo was assessed as part of the repeated-dose toxicity study in mice and a pharmacokinetic study in cynomolgus monkey. All studies were designed in accordance with the ICH S8 guideline (Immunotoxicity studies for human pharmaceuticals).

Question: With “CLDN-18.2-targeting RiboMab: CLDN-18.2-targeting IgG antibody (IMAB362 delivered as ribonucleic acid) expressed from mRNAs encoding heavy and light chain” as the substance, how does the “expression and assembly of full IgG in cell supernatant” value (CHO-K1 cells) read?
Answer: Fully assembled

Question: What about the “expression and assembly of full IgG in cell supernatant” value (CHO-K1 cells; listed as RiboMab01) of the same substance?
Answer: expressed

Question: And the “ADCC, cellular cytotoxicity” value [1]?
Answer: target specific and dose-dependent cellular cytotoxicity comparable to the reference protein IMAB362

Question: What about the “ADCC, cellular cytotoxicity” value ([1]; listed as RiboMab01) of the same substance?
Answer: high target specific cell cytotoxicity

Question: What about the “ADCC EC50” value ([1]; human PBMCs from three donors, E:T 30:1, 48 hours) of the same substance?
Answer: 0.01 to 0.127 µg/mL

Question: And the “CDC, cellular cytotoxicity” value [2]?
Answer: target specific and dose-dependent cellular cytotoxicity comparable to the reference protein IMAB362

Question: What about the “CDC, cellular cytotoxicity” value ([2]; listed as RiboMab01) of the same substance?
Answer: high target specific cell cytotoxicity

Question: What about the “ADCC target cell lysis” value [3] of the same substance?
Answer: high and dose-dependent target cell lysis

Question: What about the “ADCC target cell lysis” value ([3]; listed as RiboMab01) of the same substance?
Answer: specific tumor cell lysis

Question: What about the “unspecific lysis on target-negative cells” value (MDA-MB-231 cells [4]) of the same substance?
Answer: No unspecific lysis

Question: And the “ADCC target cell lysis” value [5]?
Answer: high and dose-dependent target cell lysis

Question: What about the “ADCC target cell lysis” value ([5]; listed as RiboMab01) of the same substance?
Answer: dose-dependent ADCC

Question: What about the EC50 ([5]; serum of monkey No. 14 (1.6 mg/kg) 48 hours after 3rd dosing or recombinant reference protein, 48 hours incubation) of the same substance?
Answer: 0.066 nM

Question: And the “ADCC EC50” value ([5]; serum of monkey No. 14, 48 hours after 3rd injection, 10-point dilution row)?
Answer: 0.01 µg/mL

Question: What about the “unspecific lysis on control cells” value (MDA-MB-231 cells [6]; FIG. 5 Panel C dilution row) of the same substance?
Answer: weak unspecific lysis

Question: What about the “unspecific lysis on target-negative cells” value (MDA-MB-231 cells [6]; NHP serum 24 h and 168 h post dosing) of the same substance?
Answer: Low effector, donor-dependent unspecific lysis

Question: What about the “time RiboMab detectable post administration” value [7] of the same substance?
Answer: up to 504 hours

Question: What about the “time RiboMab detectable post administration” value ([7]; listed as CLDN-18.2-targeting antibody agent) of the same substance?
Answer: up to 504 hours post dosing.

Question: What about the “time of peak concentration” value [8] of the same substance?
Answer: 24 h

Question: What about the “peak plasma concentration of RiboMab” value ([9]; 30 μg, 24 hours post-dosing) of the same substance?
Answer: ≤ 1000 µg/mL

Question: And the “RiboMab levels on weekly administration” value [9]?
Answer: Sustained CLDN-18.2-targeting RiboMab

Question: What about the systemic side effects [10] of the same substance?
Answer: no systemic side effects such as diarrhea were observed
